Assay results as given in ChEMBL document CHEMBL1158712, “Acetylated aporphine alkaloids from Lysichiton camtschatcense” (J Nat Prod, 2005).
pIC50: −log10 of the molar value.

Assays:
[1] = system: Radical scavenging activity; experiment: Antioxidant activity assessed as DPPH radical scavenging activity after 30 mins; assay type: functional
[2] = system: Radical scavenging activity; experiment: Antioxidant activity assessed as DPPH radical scavenging activity after 48 hrs; assay type: functional

pIC50 [2] | SMILES | Activity [1]
3.29 | CC(=O)O[C@H]1c2ccccc2-c2c3c(cc4c2[C@@H]1N(C(C)=O)CC4)OCO3 | < 10%
3.44 | COc1cc2c3c(c1OC)-c1ccccc1[C@H](OC(C)=O)[C@H]3N(C(C)=O)CC2 | < 10%
